Experimental data reported in patent US5212326A, “Sodium hydrogen divalproate oligomer” (Abbott Laboratories, priority 1991, dated 1993).

How the values were obtained:
Assay type in all cases: in vivo
[1] = Bioavailability study, blood plasma levels in mouse; settings: po, 200 mg/kg, equimolar doses, 30 minutes after administration, read-out: peak blood plasma levels
Method: (§1) In a bioavailability study carried out with (A) and (C) above in various animal species, the peak blood plasma levels of oral, equimolar doses are determined according to standard procedures, 30 minutes after drug administration.

[2] = Bioavailability study, blood plasma levels and AUC in dog; settings: po, 25 mg/kg, equimolar doses
Method: as §1
*Area under the curve value for 0-7 hours.

[3] = tested on: Pentylenetetrazole seizures; experiment: Anticonvulsant activity, pentylenetetrazole seizures in mice (oral ED50); settings: based on equimolar valproic acid equivalents
Source text: (§2) In a comparison of anticonvulsant activities of
(§3) the oral ED50 based on equimolar valproic acid equivalents are established by standard procedures.

[4] = tested on: Pentylenetetrazole seizures; experiment: Anticonvulsant activity, pentylenetetrazole seizures in rats (oral ED50); settings: Rattus norvegicus, based on equimolar valproic acid equivalents
Source text: as §2, §3

[5] = Bioavailability study, blood plasma levels in rat; settings: po, 200 mg/kg, equimolar doses, 30 minutes after administration, read-out: peak blood plasma levels
Method: as §1

Structure (SMILES) | Cmax at 0.5 h [1] [ng/g] | AUC at 7 h ([2]; 0-7 hours, read-out: AUC (Area under the curve value for 0-7 hours)) [µg·h/mL] | Cmax at 0.5 h ([2]; 30 minutes after administration, read-out: peak blood plasma levels) [ng/g] | oral ED50, Pentylenetetrazole seizures (mice) [3] [mg/kg] | ED50 [4] [mg/kg] | Cmax at 0.5 h [5] [ng/g] | ED50 ([3]; Mus musculus, po) [mg/kg]
CCCC(CCC)C(=O)O [A, 2-propylpentanoic acid] | 134000 | 82.3 | 65200 | < 800 | 355 | 84100 | 
CCCC(CCC)C(=O)[O-].[Na+] [B, sodium valproate] |  |  |  |  | 415 |  | 282
